Assay results: patent US9273040B2 (Merck Sharp & Dohme Corp., priority 2011, dated 2016)
Where two headings read alike, the source gives them in different places.

Legend:
[1] = target: T1, human Nav1.7 channels stably expressed in HEK 293 cells (Homo sapiens, UniProt Q15858); test: PatchXpress 7000 automated patch-clamp, sodium current; assay type: cell-based; conditions: 22° C.
T1 construct: expressed in transfected cells
Summary of the method: (§1)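 IC50 values came from Hill-equation fits of rundown-corrected inhibition. PatchXpress recordings at 22° C held cells 20 mV negative to V0.5 inact and applied 10 Hz trains of 30 ms steps to −20 mV (Nav1.7) or an 8000 ms prepulse 7 mV positive to V0.5 inact. […]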

[2] = target: T2, human Nav1.5 channels stably expressed in HEK 293 cells (Homo sapiens, UniProt Q14524); test: as above; assay type: cell-based; conditions: selectivity over Nav1.5
T2 construct: expressed in transfected cells
T2 sequence (Q14524 whole entry): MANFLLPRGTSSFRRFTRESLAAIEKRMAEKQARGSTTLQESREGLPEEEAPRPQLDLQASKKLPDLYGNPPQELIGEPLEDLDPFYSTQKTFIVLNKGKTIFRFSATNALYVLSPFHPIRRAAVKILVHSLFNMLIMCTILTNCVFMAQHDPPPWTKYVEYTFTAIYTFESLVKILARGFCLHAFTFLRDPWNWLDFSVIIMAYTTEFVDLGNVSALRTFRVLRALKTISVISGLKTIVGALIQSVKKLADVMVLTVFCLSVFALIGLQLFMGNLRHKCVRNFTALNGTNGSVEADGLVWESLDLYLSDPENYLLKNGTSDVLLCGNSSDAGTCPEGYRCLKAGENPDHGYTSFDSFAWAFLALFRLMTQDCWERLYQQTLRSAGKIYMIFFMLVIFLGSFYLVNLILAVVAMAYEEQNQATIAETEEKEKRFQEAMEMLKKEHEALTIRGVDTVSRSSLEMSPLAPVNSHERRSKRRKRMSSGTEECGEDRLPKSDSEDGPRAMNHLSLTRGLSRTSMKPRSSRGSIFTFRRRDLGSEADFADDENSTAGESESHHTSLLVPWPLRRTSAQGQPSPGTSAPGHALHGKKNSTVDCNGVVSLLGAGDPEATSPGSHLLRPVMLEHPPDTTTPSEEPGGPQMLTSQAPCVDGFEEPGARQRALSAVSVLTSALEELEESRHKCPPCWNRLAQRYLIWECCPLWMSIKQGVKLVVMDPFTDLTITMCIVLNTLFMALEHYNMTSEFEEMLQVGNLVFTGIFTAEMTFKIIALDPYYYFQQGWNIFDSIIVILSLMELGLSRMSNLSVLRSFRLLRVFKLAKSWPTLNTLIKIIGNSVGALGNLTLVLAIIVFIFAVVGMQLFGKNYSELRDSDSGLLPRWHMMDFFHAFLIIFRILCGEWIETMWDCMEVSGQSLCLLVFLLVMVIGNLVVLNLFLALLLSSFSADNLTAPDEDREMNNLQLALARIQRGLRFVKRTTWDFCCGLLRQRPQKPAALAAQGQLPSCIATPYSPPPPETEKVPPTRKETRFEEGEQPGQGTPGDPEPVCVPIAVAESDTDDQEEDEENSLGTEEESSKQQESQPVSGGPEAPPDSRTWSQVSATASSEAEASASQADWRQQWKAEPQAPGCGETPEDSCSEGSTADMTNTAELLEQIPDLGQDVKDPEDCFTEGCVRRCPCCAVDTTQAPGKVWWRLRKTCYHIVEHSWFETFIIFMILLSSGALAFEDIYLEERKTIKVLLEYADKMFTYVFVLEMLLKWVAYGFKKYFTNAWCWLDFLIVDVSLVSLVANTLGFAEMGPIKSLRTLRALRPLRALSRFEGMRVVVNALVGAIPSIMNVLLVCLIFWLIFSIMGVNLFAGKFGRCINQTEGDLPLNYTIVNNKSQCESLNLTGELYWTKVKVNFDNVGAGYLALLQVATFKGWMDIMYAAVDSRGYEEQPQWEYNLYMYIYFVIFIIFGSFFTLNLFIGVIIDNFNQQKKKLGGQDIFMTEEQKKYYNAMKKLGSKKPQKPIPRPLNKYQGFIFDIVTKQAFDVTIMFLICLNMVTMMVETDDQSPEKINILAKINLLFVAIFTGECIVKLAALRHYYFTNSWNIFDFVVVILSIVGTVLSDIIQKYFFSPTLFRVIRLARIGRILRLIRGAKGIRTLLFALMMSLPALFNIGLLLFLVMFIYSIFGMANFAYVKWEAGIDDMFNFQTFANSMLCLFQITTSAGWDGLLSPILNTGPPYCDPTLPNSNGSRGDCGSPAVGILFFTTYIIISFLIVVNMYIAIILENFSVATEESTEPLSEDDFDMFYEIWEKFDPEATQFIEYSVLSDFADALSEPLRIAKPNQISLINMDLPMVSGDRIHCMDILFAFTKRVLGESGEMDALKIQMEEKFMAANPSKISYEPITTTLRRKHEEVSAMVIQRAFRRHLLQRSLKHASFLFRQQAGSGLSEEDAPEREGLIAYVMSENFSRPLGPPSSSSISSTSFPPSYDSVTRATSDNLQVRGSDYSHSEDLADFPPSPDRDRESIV
Summary of the method: as §1

[3] = read-out: potency for the Nav 1.7 sodium ion channel (as measured by PatchXpress)

T1 sequence (Q15858 whole entry): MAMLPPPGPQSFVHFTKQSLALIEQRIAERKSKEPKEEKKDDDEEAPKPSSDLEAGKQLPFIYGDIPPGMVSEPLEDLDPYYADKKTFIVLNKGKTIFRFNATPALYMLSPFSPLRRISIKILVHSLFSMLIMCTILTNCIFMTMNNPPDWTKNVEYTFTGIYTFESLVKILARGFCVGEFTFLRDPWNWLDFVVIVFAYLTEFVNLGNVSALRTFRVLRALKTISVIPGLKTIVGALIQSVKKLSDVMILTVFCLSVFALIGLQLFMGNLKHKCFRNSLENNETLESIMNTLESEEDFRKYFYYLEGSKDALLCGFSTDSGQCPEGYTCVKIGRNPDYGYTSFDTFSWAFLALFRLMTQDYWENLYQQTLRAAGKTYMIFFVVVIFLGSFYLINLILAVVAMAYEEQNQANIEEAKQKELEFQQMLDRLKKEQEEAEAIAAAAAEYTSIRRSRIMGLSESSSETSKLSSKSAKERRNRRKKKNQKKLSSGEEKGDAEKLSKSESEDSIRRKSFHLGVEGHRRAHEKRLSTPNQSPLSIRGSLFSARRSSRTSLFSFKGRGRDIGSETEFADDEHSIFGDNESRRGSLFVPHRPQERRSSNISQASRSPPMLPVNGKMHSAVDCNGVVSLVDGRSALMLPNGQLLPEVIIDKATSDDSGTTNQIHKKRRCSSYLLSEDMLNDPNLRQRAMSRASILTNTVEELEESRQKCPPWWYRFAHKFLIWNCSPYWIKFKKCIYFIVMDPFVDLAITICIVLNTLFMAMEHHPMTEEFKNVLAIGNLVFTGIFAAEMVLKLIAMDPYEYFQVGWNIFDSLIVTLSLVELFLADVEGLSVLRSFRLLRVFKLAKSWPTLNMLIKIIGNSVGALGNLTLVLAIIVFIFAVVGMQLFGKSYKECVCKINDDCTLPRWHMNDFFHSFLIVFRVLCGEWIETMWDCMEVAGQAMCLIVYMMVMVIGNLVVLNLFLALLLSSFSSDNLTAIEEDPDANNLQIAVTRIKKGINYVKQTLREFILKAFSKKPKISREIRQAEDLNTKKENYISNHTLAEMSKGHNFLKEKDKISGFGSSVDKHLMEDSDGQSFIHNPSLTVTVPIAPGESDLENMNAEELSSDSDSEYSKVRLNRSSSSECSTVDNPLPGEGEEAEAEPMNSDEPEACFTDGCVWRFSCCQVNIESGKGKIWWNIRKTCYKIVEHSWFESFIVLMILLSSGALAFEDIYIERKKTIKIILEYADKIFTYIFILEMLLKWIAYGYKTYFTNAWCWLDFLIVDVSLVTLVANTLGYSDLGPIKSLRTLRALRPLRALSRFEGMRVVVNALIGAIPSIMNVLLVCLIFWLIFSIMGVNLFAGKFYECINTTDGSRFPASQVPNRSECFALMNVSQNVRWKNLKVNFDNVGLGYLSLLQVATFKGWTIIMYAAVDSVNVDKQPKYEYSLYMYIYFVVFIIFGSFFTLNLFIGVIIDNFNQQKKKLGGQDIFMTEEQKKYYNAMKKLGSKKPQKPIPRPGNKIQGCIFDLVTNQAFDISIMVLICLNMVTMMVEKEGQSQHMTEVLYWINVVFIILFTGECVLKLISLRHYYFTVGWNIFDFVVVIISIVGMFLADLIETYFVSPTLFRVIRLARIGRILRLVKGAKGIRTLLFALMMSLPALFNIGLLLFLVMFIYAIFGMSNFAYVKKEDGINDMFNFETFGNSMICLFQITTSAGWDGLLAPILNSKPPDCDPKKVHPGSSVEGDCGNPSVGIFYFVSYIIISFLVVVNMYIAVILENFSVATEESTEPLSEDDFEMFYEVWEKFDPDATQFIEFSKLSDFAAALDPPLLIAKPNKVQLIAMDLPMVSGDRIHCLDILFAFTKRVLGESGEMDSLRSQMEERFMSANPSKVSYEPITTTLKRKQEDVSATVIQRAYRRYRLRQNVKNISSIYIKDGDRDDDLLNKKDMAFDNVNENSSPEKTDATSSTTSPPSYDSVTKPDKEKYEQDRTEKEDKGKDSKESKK

Compound	IC50 [1, 3] [nM]	ratio of Nav 1.5:Nav 1.7 potency, determined by PatchXpress measurement [2]	IC50 ([1]; potency for the Nav 1.7 sodium ion channel (as measured by PatchXpress)) [nM]
C[C@H](c1ccccc1C1CNC1)n1c(=O)oc2cc(S(=O)(=O)Nc3nccs3)c(F)cc21 [Compound 43-21, 3-[(1R)-1-(2-azetidin-3-ylphenyl)ethyl]-5-fluoro-2-oxo-N-1,3-thiazol-2-yl-2,3-dihydro-1,3-benzoxazole-6-sulfonamide]	18	1164	
C[C@@H](c1cccc2cncn12)n1c(=O)oc2cc(S(=O)(=O)Nc3nccs3)c(F)cc21 [Compound 43-17, 5-fluoro-3-[(1S)-1-imidazo[1,5-a]pyridin-5-ylethyl]-2-oxo-N-1,3-thiazol-2-yl-2,3-dihydro-1,3-benzoxazole-6-sulfonamide]	621	48	
Cl.O=c1oc2cc(S(=O)(=O)Nc3ncns3)c(F)cc2n1Cc1cccc2c1CC(N1CC(F)(F)C1)CC2 (stereo not drawn) [Compound 19-6, 3-((7-(3,3-difluoroazetidin-1-yl)-5,6,7,8-tetrahydronaphthalen-1-yl)methyl)-5-fluoro-2-oxo-N-(1,2,4-thiadiazol-5-yl)-2,3-dihydrobenzo[d]oxazole-6-sulfonamide hydrochloride]	118	103	
O=c1oc2cc(S(=O)(=O)Nc3nccs3)c(F)cc2n1Cc1cccc(Br)c1 [Compound 43-6, 3-(3-bromobenzyl)-5-fluoro-2-oxo-N-1,3-thiazol-2-yl-2,3-dihydro-1,3-benzoxazole-6-sulfonamide]	162	80	
CC1(C)CC(n2c(=O)oc3cc(S(=O)(=O)Nc4ncns4)c(F)cc32)c2ccccc2O1 (stereo not drawn) [Compound 39-7, 3-(2,2-dimethyl-3,4-dihydro-2H-chromen-4-yl)-5-fluoro-2-oxo-N-1,2,4-thiadiazol-5-yl-2,3-dihydro-1,3-benzoxazole-6-sulfonamide]	218	137	
C[C@@H](c1ccccc1CCCN)n1c(=O)oc2cc(S(=O)(=O)Nc3ncns3)c(F)cc21 [Compound 33-8]	168	179	
C[C@H](c1ccccc1C1=CCNCC1)n1c(=O)oc2cc(S(=O)(=O)Nc3ncns3)c(F)cc21 [Compound 16-4, (R)-5-Fluoro-2-oxo-3-(1-(2-(1,2,3,6-tetrahydropyridin-4-yl)phenyl)ethyl)-N-(1,2,4-thiadiazol-5-yl)-2,3-dihydrobenzo[d]oxazole-6-sulfonamide]		296	28
C[C@H](c1cccc2c1CN(S(C)(=O)=O)CC2)n1c(=O)oc2cc(S(=O)(=O)Nc3ncns3)c(F)cc21 [Compound 36-5, 5-fluoro-3-{(1R)-1-[2-(methylsulfonyl)-1,2,3,4-tetrahydroisoquinolin-8-yl]ethyl}-2-oxo-N-1,2,4-thiadiazol-5-yl-2,3-dihydro-1,3-benzoxazole-6-sulfonamide]	155	35	
O=c1oc2cc(S(=O)(=O)Nc3ncns3)c(F)cc2n1Cc1cccc2c1CC(N1CCC1)CC2 (racemic) [Compound 23-19, (+/−)-3-[(7-azetidin-1-yl-5,6,7,8-tetrahydronaphthalen-1-yl)methyl]-5-fluoro-2-oxo-N-1,2,4-thiadiazol-5-yl-2,3-dihydro-1,3-benzoxazole-6-sulfonamide]	32	499	
O=c1oc2cc(S(=O)(=O)Nc3ncns3)c(F)cc2n1C1CC2(CCN(Cc3ccccc3)CC2)Oc2ccccc21 (stereo not drawn) [Compound 39-11, 3-(1′-benzyl-3,4-dihydrospiro[chromene-2,4′-piperidin]-4-yl)-5-fluoro-2-oxo-N-1,2,4-thiadiazol-5-yl-2,3-dihydro-1,3-benzoxazole-6-sulfonamide]	166	114	
O=c1oc2cc(S(=O)(=O)Nc3nccs3)c(F)cc2n1C1CCCc2ccncc21 (stereo not drawn) [Compound 43-3, 5-fluoro-2-oxo-3-(5,6,7,8-tetrahydroisoquinolin-8-yl)-N-1,3-thiazol-2-yl-2,3-dihydro-1,3-benzoxazole-6-sulfonamide]	550	91	
C[C@H](c1cccc2cncn12)n1c(=O)oc2cc(S(=O)(=O)Nc3nccs3)c(F)cc21 [Compound 43-18, 5-fluoro-3-[(1R)-1-imidazo[1,5-a]pyridin-5-ylethyl]-2-oxo-N-1,3-thiazol-2-yl-2,3-dihydro-1,3-benzoxazole-6-sulfonamide]	215	139	
O=c1oc2cc(S(=O)(=O)Nc3ncns3)c(F)cc2n1Cc1ccccc1 [Compound 11-7, 3-benzyl-5-fluoro-2-oxo-N-1,2,4-thiadiazol-5-yl-2,3-dihydro-1,3-benzoxazole-6-sulfonamide]	545	55	
CCC(O)(C#Cc1ccccc1[C@@H](C)n1c(=O)oc2cc(S(=O)(=O)Nc3ncns3)c(F)cc21)CC [Compound 17-6, 3-{(1R)-1-[2-(3-ethyl-3-hydroxypent-1-yn-1-yl)phenyl]ethyl}-5-fluoro-2-oxo-N-1,2,4-thiadiazol-5-yl-2,3-dihydro-1,3-benzoxazole-6-sulfonamide]	104	91	
O=c1oc2cc(S(=O)(=O)Nc3ncns3)c(F)cc2n1C1COCc2ccccc21 (stereo not drawn) [Compound 39-8, 3-(3,4-dihydro-1H-isochromen-4-yl)-5-fluoro-2-oxo-N-1,2,4-thiadiazol-5-yl-2,3-dihydro-1,3-benzoxazole-6-sulfonamide]	204	29	
O=c1oc2cc(S(=O)(=O)Nc3ncns3)c(F)cc2n1Cc1cccc2c1CC(N1CCOCC1)CC2 (racemic) [Compound 23-16, (+/−)-5-fluoro-3-[(7-morpholin-4-yl-5,6,7,8-tetrahydronaphthalen-1-yl)methyl]-2-oxo-N-1,2,4-thiadiazol-5-yl-2,3-dihydro-1,3-benzoxazole-6-sulfonamide]	70	431	
C[C@H](O)C#Cc1ccccc1[C@@H](C)n1c(=O)oc2cc(S(=O)(=O)Nc3ncns3)c(F)cc21 [Compound 17-12, 5-fluoro-3-[(1R)-1-{2-[(3S)-3-hydroxybut-1-yn-1-yl]phenyl}ethyl]-2-oxo-N-1,2,4-thiadiazol-5-yl-2,3-dihydro-1,3-benzoxazole-6-sulfonamide]	37	262	
O=c1oc2cc(S(=O)(=O)Nc3ncns3)c(F)cc2n1[C@H]1CC2(CCC2)Oc2ccccc21 [Compound 39-16, 3-[(4S)-3,4-dihydrospiro[chromene-2,1′-cyclobutan]-4-yl]-5-fluoro-2-oxo-N-1,2,4-thiadiazol-5-yl-2,3-dihydro-1,3-benzoxazole-6-sulfonamide]	53	149	
O=c1oc2cc(S(=O)(=O)Nc3ncns3)c(F)cc2n1Cc1cccc2c1CC(N1CCCC1)CC2 (racemic) [Compound 23-20, (+/−)-5-fluoro-2-oxo-3-[(7-pyrrolidin-1-yl-5,6,7,8-tetrahydronaphthalen-1-yl)methyl]-N-1,2,4-thiadiazol-5-yl-2,3-dihydro-1,3-benzoxazole-6-sulfonamide]	30	802	
CC(c1cccc2c1CC(N)CC2)n1c(=O)oc2cc(S(=O)(=O)Nc3ncns3)c(F)cc21 (racemic) [Compound 23-24, (R,R and S,R) or (R,S and S,S)-3-[1-(7-amino-5,6,7,8-tetrahydronaphthalen-1-yl)ethyl]-5-fluoro-2-oxo-N-1,2,4-thiadiazol-5-yl-2,3-dihydro-1,3-benzoxazole-6-sutfonamide]	15	1119	
Cc1n[nH]cc1-c1cccc([C@@H](C)n2c(=O)oc3cc(S(=O)(=O)Nc4ncns4)c(F)cc32)c1 [Compound 28-5, 5-fluoro-3-{(1R)-1-[3-(3-methyl-1H-pyrazol-4-yl)phenyl]ethyl}-2-oxo-N-1,2,4-thiadiazol-5-yl-2,3-dihydro-1,3-benzoxazole-6-sulfonamide]	48	64	
C[C@H](c1ccccc1C#CCC1CCCN1)n1c(=O)oc2cc(S(=O)(=O)Nc3ncns3)c(F)cc21 (stereo partly drawn) [Compound 17-13, 5-fluoro-2-oxo-3-{(1R)-1-[2-(3-pyrrolidin-2-ylprop-1-yn-1-yl)phenyl]ethyl}-N-1,2,4-thiadiazol-5-yl-2,3-dihydro-1,3-benzoxazole-6-sulfonamide]	34	789	
C[C@H](c1ccccc1C1=CCN(S(C)(=O)=O)CC1)n1c(=O)oc2cc(S(=O)(=O)Nc3ncns3)c(Cl)cc21 [Compound 36-1, (R)-5-chloro-3-(1-(2-(1-(methylsulfonyl)-1,2,3,6-tetrahydropyridin-4-yl)phenyl)ethyl)-2-oxo-N-(1,2,4-thiadiazol-5-yl)-2,3-dihydrobenzo[d]oxazole-6-sulfonamide]	527	54	
CC(c1cccc(-c2cccnc2)c1)n1c(=O)oc2cc(S(=O)(=O)Nc3ncns3)c(F)cc21 (stereo not drawn) [Compound 29-4, 5-fluoro-2-oxo-3-[1-(3-pyridin-3-ylphenyl)ethyl]-N-1,2,4-thiadiazol-5-yl-2,3-dihydro-1,3-benzoxazole-6-sulfonamide]	162	57	
